From patent publication US10813904B2, “Small molecule anticancer agents” (University of Florida Research Foundation, Incorporated, priority 2017, dated 2020)
“Also recorded” adds a separate entry of the source.

Columns and labels:
Format in all cases: cell-based
T47D cells = test: Immunoblot analysis of T47D stable cell lines (vector, EGFR or HER2 overexpressing); conditions: 20 μM NSC624205, 24 hours
Description: Recombinant retroviruses were prepared and used to produce stable cell lines as described previously. Retroviral vectors encoding EGFR (plasmid 11011, [68]) and HER2 (plasmid 40978 [69]) were from Addgene (Cambridge, Mass.).
Cells were grown in Dulbecco's modified Eagle's medium (GE Healthcare Life Sciences Logan, Utah) supplemented with 10% fetal bovine serum (10% FBS-DMEM) in a humidified 37° C. incubator with 5% CO2. Cell lysates were prepared using a buffer containing 1% Triton X100, 20 mM HEPES (pH 7.4), 1 mM EDTA, 1 mM EGTA, 0.1% 3-mercaptoethanol, 5% glycerol, 10 nM microcystin, 200 μM Na3VO4 and 40 mM Na2H2P2O7 as described previously. […]

[1] = tested on: MDA-MB-468 or BT474 cells; test: Immunoblot analysis, MDA-MB-468 or BT474 cells (text does not separate the lines); conditions: for DDA activation of the ER stress response when protein synthesis is inhibited: 20 μM RBF3 with 20 μM CHX or 5 μg/ml Puromycin
Description: (§1) Cells were grown in Dulbecco's modified Eagle's medium (GE Healthcare Life Sciences Logan, Utah) supplemented with 10% fetal bovine serum (10% FBS-DMEM) in a humidified 37° C. incubator with 5% CO2. Cell lysates were prepared using a buffer containing 1% Triton X100, 20 mM HEPES (pH 7.4), 1 mM EDTA, 1 mM EGTA, 0.1% 3-mercaptoethanol, 5% glycerol, 10 nM microcystin, 200 μM Na3VO4 and 40 mM Na2H2P2O7 as described previously.
(§2) Immunoblot analysis was carried out using primary antibodies purchased from Santa Cruz Biotechnology (Dallas, Tex.) [Actin, sc-1616-R; ERK, sc-93; JNK, sc-572; P-JNK, sc-6254; Src, sc-18; EGFR, sc-03; GRP78, sc-13539; Phosphotyrosine (PY99), sc-7020], Cell Signaling Technology (Beverly, Mass.) [Akt, #4691; P-Akt[T308], #13038; P-Akt[S473], #9271; ATF4, #11815; CHOP, #2895; P-Src[Y527], #2105; EGFR, #4267; HER2, #2165; HER3, #4754; Calnexin, #2679; #13024; P-Erk, #9101; IRE1α, #3294; XBP1s, #12782; PARP, #9532; PDI, #3501; PERK, #5683; S6, #2212; P-S6, #2211; P-Src[Y416], #6943], BD Transduction Laboratories (San Jose, Calif.) [PAI-1, 612024], Millipore (Temecula, Calif.) [anti-phosphotyrosine (4G10), 05-321], and Sigma-Aldrich (St. Louis, Mo.) [anti-FLAG (M2), F3165]. To quantify immunoblot results, bands were analyzed using ImageJ (imagej.nih.gov/ij/) and each band was normalized to the corresponding Actin loading control band.

MDA-MB-468 cells [2] = test: Immunoblot analysis of MDA-MB-468 cell extracts; conditions: for ER stress response / UPR activation / HER3 levels / Akt phosphorylation / PARP cleavage (cell death): 2-DOG 4 mM; for ER stress response / UPR activation / Akt phosphorylation / PARP cleavage (cell death): DTDO 20 μM; for ATF4 and CHOP expression: compared with 20 μM RBF3
Description: (§3) The following cell lines were purchased from American Type Culture Collection (ATCC) (Manassas, Va.): MDA-MB-468, BT474, T47D, SKBR3, MDA-MB-231, HCC1954, HEK 293, TSC2-Ang1, and BxPC3. The HCI-012 cell line was derived from the HCI-012 Patient-Derived Xenograft tumor line provided by Dr. Alana Welm using conditional cell reprogramming. Wild type and eIF2α[S51A] homozygous knock-in Mouse Embryo Fibroblasts (MEFs) were described previously.
as §1, §2

[3] = tested on: XBP1 mRNA splicing in MDA-MB-468 cells; test: RT-PCR of XBP1 mRNA splicing; conditions: 24 hours; RBF3 20 μM, DTT 2 mM
Description: RNA was isolated from MDA-MB-468 and BT474 cells with Trizol Reagent (Invitrogen) according to the manufacturer's instructions, and reverse transcribed to cDNA under the following conditions: 25° C. for 10 min, 42° C. for 30 min, and 95° C. for 5 min. PCR was performed using XBP1 and β-Actin primers. The primers used to amplify XBP1 are as follows: Forward: […] and Reverse: […]. The primers used to amplify (3-Actin are as follows: Forward: […] and Reverse: […]. Reactions were performed as follows: 96° C. for 5 min followed by 35 cycles of 95° C. for 45 sec, 60° C. for 1 min, and 72° C. for 30 sec. Reaction products were visualized on 3% agarose gels.

[4] = tested on: Mouse Embryo Fibroblasts (MEFs); test: Immunoblot analysis of Mouse Embryo Fibroblasts; conditions: 24 hours, thapsigargin 400 nM, tunicamycin 500 ng/ml; for Akt phosphorylation, wild type MEFs / ER stress response / UPR, wild type MEFs / PARP cleavage, wild type MEFs: RBF3 20 μM, DTT 5 mM
Description: as §3, §1, §2

BT474 cells [5] = test: Immunoblot analysis of BT474 cell extracts
Description: as §3, §1, §2

MDA-MB-468 cells [6] = test: MTT cell viability assay, MDA-MB-468; conditions: 72 hours, increasing concentrations
Description: (§4) Cell viability was evaluated using MTT (3-(4,5-dimethylthiazol-2-yl)-2,5-diphenyltetrazolium bromide) assays carried out based on the manufacturer's instructions (kit CGD1, Sigma-Aldrich, St. Louis, Mo.)

BT474 cells [7] = test: MTT cell viability assay, BT474; conditions: 72 hours
Description: as §4

HCC1954 cells = test: Immunoblot analysis of HCC1954 cells; conditions: 24 hour; 20 μM RBF3, 20 μM Lapatinib
[8] = RBF3 20 μM, thapsigargin 400 nM, DTT 2 mM
[9] = thapsigargin 400 nM, tunicamycin 500 ng/ml, DTT 2 mM
[10] = 24 hours, RBF3 20 μM, 2-DOG 4 mM
[11] = 24 hours, RBF3 20 μM, thapsigargin 400 nM
[12] = increasing concentration, 24 hours (FIG. 5B)
[13] = 2.5 μM Gefitinib or Lapatinib, 24 hours

O=S(O)CCCCSSCCCCSSCCCCS(=O)O [NSC624205]
HER3 expression in EGFR or HER2 overexpressing T47D cells (T47D cells): reduced HER3 expression to very low levels; also recorded: more sensitive to downregulation

O[C@H](CS)[C@H](O)CS (racemic) [DTT, dithiothreitol]
concentrations that activate UPR / induce a similar level of ER stress [1]: millimolar concentrations
ER stress response / UPR activation (MDA-MB-468 cells [2]; 24 hours, DTT 2 mM): only weakly activated
GRP78 expression (MDA-MB-468 cells [2]; 24 hours, RBF3 20 μM, DTT 2 mM): only weakly induces
HER3 levels (MDA-MB-468 cells [2]; 24 hours, RBF3 20 μM, DTT 2 mM): less so; also recorded: induces downregulation
Akt phosphorylation (MDA-MB-468 cells [2]; 24 hours, RBF3 20 μM, DTT 2 mM): suppresses
PARP cleavage (cell death) (MDA-MB-468 cells [2]; 24 hours, RBF3 20 μM, DTT 2 mM): only weakly induces
EGFR levels (MDA-MB-468 cells [2]; 24 hours, RBF3 20 μM, thapsigargin 400 nM, tunicamycin 500 ng/ml, DTT 2 mM): induces downregulation
XBP1s expression (MDA-MB-468 cells [2]; [8]): does not upregulate
ATF4 and CHOP expression (MDA-MB-468 cells [2]; [9]): does not upregulate
IRE1-dependent XBP1 mRNA processing / splicing [3]: does not upregulate
Akt phosphorylation, wild type MEFs [4]: weakly suppressed
ER stress response / UPR, wild type MEFs [4]: did not induce
PARP cleavage, wild type MEFs [4]: induced PARP cleavage
EGFR and HER2 expression (BT474 cells [5]; 24 hours, RBF3 20 μM): only does so in the MDA-MB-468 line
XBP1s and GRP78 expression (ER stress markers) (BT474 cells [5]; 24 hours, RBF3 20 μM): increased
Akt phosphorylation (BT474 cells [5]; [10]): decreased
ATF4 and CHOP expression (BT474 cells [5]; [11]): little upregulation

COc1ccc(C[C@H](N)C(=O)N[C@H]2[C@@H](O)[C@H](n3cnc4c(N(C)C)ncnc43)O[C@@H]2CO)cc1 [Puromycin, puromycin]
DDA activation of the ER stress response when protein synthesis is inhibited ([1]; 8 hours): reduced

NCCOB(c1ccccc1)c1ccccc1 [2-APB, 2-aminoethoxydiphenyl borate]
RBF3-induced downregulation of HER3, Akt dephosphorylation, or PARP cleavage, with 2-APB [1]: did not alter
RBF3-mediated GRP78 upregulation, with 2-APB [1]: reduced

O=C(CCSSCCCCS(=O)[O-])OCC(COC(=O)CCSSCCCCS(=O)[O-])(COC(=O)CCSSCCCCS(=O)[O-])COC(=O)CCSSCCCCS(=O)[O-].[Na+].[Na+].[Na+].[Na+] (centres unmarked) [PEMP-DDA]
Akt phosphorylation, comparison of bi-, tri- and tetravalent DDAs (MDA-MB-468 cells [2]; [12]): more than RBF3 or Bn-DDA
HER3 levels, comparison of bi-, tri- and tetravalent DDAs (MDA-MB-468 cells [2]; [12]): more than RBF3 or Bn-DDA
cell viability (MTT) (MDA-MB-468 cells [6]): reduced cell viability in a concentration-dependent manner
cell viability (MTT) (BT474 cells [7]): reduced BT474 cell viability more than RBF3
HER2 expression, quantified, compared with RBF3 (BT474 cells [5]; same drug concentrations, 24 hours (FIG. 6B)): significantly more than RBF3
PARP cleavage (cPARP), quantified, compared with RBF3 (BT474 cells [5]; same drug concentrations, 24 hours (FIG. 6C)): significantly more than RBF3

COc1cc2ncnc(Nc3ccc(F)c(Cl)c3)c2cc1OCCCN1CCOCC1 [Gefitinib]
CHOP expression, combination with RBF3 (MDA-MB-468 cells [2]; [13]): cooperated with RBF3 to upregulate
concentration of RBF3 required to downregulate HER3 levels and Akt phosphorylation, on co-treatment (MDA-MB-468 cells [2]; [13]): lowered

C/C=C(/C)C(=O)O[C@H]1C(C)=C2[C@H]([C@@H]1OC(=O)CCCCCCC)[C@@](C)(OC(C)=O)C[C@H](OC(=O)CCC)[C@@]1(O)[C@H]2OC(=O)[C@@]1(C)O [thapsigargin]
XBP1s expression (MDA-MB-468 cells [2]; [8]): more strongly than RBF3
ATF4 and CHOP expression (MDA-MB-468 cells [2]; [9]): more effectively than RBF3
ATF4 and CHOP expression (MDA-MB-468 cells [2]; thapsigargin 400 nM, tunicamycin 500 ng/ml, DTT 2 mM, listed as Thapsigargin): more strongly than RBF3
Akt phosphorylation, wild type MEFs [4]: markedly suppressed
ER stress response / UPR, wild type MEFs [4]: induced a robust UPR
PARP cleavage, wild type MEFs [4]: strongly upregulated
CHOP, ATF4, and GRP78 upregulation in eIF2α[S51A] knock-in MEFs [4]: significantly blunted
PARP cleavage or XBP1s upregulation, effect of S51A eIF2a mutation [4]: did not affect
ATF4 and CHOP expression (BT474 cells [5]; [11]): strongly upregulated
PERK electrophoretic mobility (BT474 cells [5]; 24 hours, thapsigargin 400 nM): more strongly decreased

tunicamycin
ATF4 and CHOP expression (MDA-MB-468 cells [2]; [9]): more effectively than RBF3
Akt phosphorylation, wild type MEFs [4]: markedly suppressed
ER stress response / UPR, wild type MEFs [4]: induced a robust UPR
PARP cleavage, wild type MEFs [4]: strongly upregulated
CHOP, ATF4, and GRP78 upregulation in eIF2α[S51A] knock-in MEFs [4]: significantly blunted
PARP cleavage or XBP1s upregulation, effect of S51A eIF2a mutation [4]: did not affect

CS(=O)(=O)CCNCc1ccc(-c2ccc3ncnc(Nc4ccc(OCc5cccc(F)c5)c(Cl)c4)c3c2)o1 [Lapatinib]
concentration of RBF3 required to downregulate HER3 levels and Akt phosphorylation, on co-treatment (MDA-MB-468 cells [2]; [13]): lowered
CHOP expression, Lapatinib with RBF3 (HCC1954 cells): cooperated with RBF3 to upregulate
RBF3-induced UPR with respect to GRP78, XBP1s, or ATF4 levels, with Lapatinib (HCC1954 cells): only weakly potentiated

O=CC[C@@H](O)[C@H](O)[C@H](O)CO [2-DOG, 2-deoxyglucose]
ER stress response / UPR activation (MDA-MB-468 cells [2]; 24 hours, DTT 2 mM): strongly activated UPR
HER3 levels (MDA-MB-468 cells [2]; 24 hours, RBF3 20 μM, DTT 2 mM): did not cause downregulation
Akt phosphorylation (MDA-MB-468 cells [2]; 24 hours, RBF3 20 μM, DTT 2 mM): did not cause downregulation
PARP cleavage (cell death) (MDA-MB-468 cells [2]; 24 hours, RBF3 20 μM, DTT 2 mM): did not increase cell death
HER3 expression (BT474 cells [5]; 24 hours, 2-DOG 4 mM): did not cause downregulation
PARP cleavage (BT474 cells [5]; 24 hours, 2-DOG 4 mM): did not increase cell death
UPR activation (BT474 cells [5]; 24 hours, 2-DOG 4 mM): strongly activated UPR
Akt phosphorylation (BT474 cells [5]; [10]): did not cause downregulation

C[C@@H]1C[C@@H]([C@H](O)CC2CC(=O)NC(=O)C2)C(=O)[C@@H](C)C1 [CHX, cycloheximide]
DDA-mediated downregulation of EGFR or HER3, with CHX ([1]; 8 hours, 20 μM RBF3, 20 μM CHX): did not overcome
RBF3-induced PARP cleavage and Akt dephosphorylation, with CHX ([1]; 8 hours, 20 μM RBF3, 20 μM CHX): partly overcame
DDA activation of the ER stress response when protein synthesis is inhibited ([1]; 8 hours): reduced
CHX blockade of RBF3-induced PARP cleavage ([1]; 24 hour treatment): less apparent
RBF3-mediated UPR on co-treatment with CHX (MDA-MB-468 cells [2]; 2-16 hrs): rapidly and persistently blocked
HER2 expression, RBF3 with CHX (BT474 cells [5]; 24 hour, 20 μM RBF3, 20 μM CHX): partially restored
